Values of other authors as cited in patent US20060178351A1, “Treatment of immune-mediated disorders with active vitamin D compounds alone or in combination with other therapeutic agents” (Novacea, Inc., priority 2003, published 2006).

Details: relative to an equal dose of calcitriol

Hypercalcemic effect compared to calcitriol: reduced hypercalcemic effect
SMILES: C=C1/C(=C\C=C2/CCC[C@]3(C)C([C@H](C)CC#CC(C)(C)O)=CC[C@@H]23)C[C@@H](O)C[C@@H]1O [Ro23-7553]
